We go through eight molecules from patent US12030880B2, “Iminosulfanone compound as bromodomain protein inhibitor and pharmaceutical composition and medical use thereof” (CHIA TAI TIANQING PHARMACEUTICAL GROUP CO., LTD., priority 2018, dated 2024).

The target in one series is BRD4 (BD1) (Homo sapiens (Human), UniProt O60885). Put plainly: In vitro BRD4 (BD1) enzymatic activity assay (HTRF). It counts as binding. The note with it: GST-BRD4 (BD1, 44-168 aa). On the procedure:
In the present application, IC50 values of the compounds in inhibiting BRD4 (BD1) enzyme binding reaction were determined by homogeneous time resolved fluorescence (HTRF). A compounds was serially diluted 5-fold with 100% DMSO starting from 0.2 mM (7 concentrations in total), and then 2 μL of the compound at each concentration was added to 48 μL of a reaction buffer (20 mM HEPES pH 7.5, 150 mM NaCl, 5 mM DTT, 0.005% Tween 20, and 100 μg/mL BSA) for dilution, and mixed well. 2.5 μL of the resulting mixture was added to a 384-well plate (OptiPlate-384, purchased from PerkinElmer), then 5 μL of GST-BRD4 (BD1, 44-168 aa) (final concentration: 1 nM) was added, and the resulting mixture was centrifuged, and fully mixed. 2.5 μL of a short peptide Biotin-AHA-SGRGK(Ac)GGK(Ac)GLGK(Ac)GGAK(Ac) RHRKV (final concentration: 100 nM) was then added to initiate the reaction (total reaction volume: 10 μL). The 384-well plate was placed in an incubator at 23° C. to react for 1 hour, and then 5 μL of Eu3+ cryptate-labled anti-GST antibody (purchased from Cisbio) and 5 μL of Streptavidin-XL-665 (purchased from Cisbio) were added to terminate the reaction. After being incubated in the incubator for another 1 hour, the fluorescence values (excited at 320 nm, emitted light at 665 nm and 620 nm being detected, and the ratio of the two being the enzyme binding signal) were read on Envision (purchased from PerkinElmer). The binding strength of each compound to BRD4 (BD1) protein was determined respectively at 7 concentrations, and the data were calculated using GraphPad Prism software to obtain the IC50 value of the compound.

A further series has as its target BRD4 (BD2) (Homo sapiens (Human), UniProt O60885). The experiment in a line: In vitro BRD4 (BD2) enzymatic activity assay (HTRF). Type of series: binding. To be noted: GST-BRD4 (BD2, 349-460 aa). The protocol: In the present application, IC50 values of the compounds in inhibiting BRD4 (BD2) enzyme binding reaction were determined by homogeneous time resolved fluorescence (HTRF). A compound was serially diluted 5-fold with 100% DMSO starting from 1 mM (7 concentrations in total), and then 2 μL of the compound at each concentration was added to 18 μL of a reaction buffer (20 mM HEPES pH 7.5, 150 mM NaCl, 5 mM DTT, 0.005% Tween 20, and 100 μg/mL BSA) for dilution. After being mixed well, 2 μL of the compound at each concentration was added to 48 μL of the above reaction buffer for dilution, and mixed well (final concentration of the compound in DMSO: 0.1%). 2.5 μL of the resulting mixture was added to a 384-well plate (OptiPlate-384, purchased from PerkinElmer), then 5 μL of GST-BRD4 (BD2, 349-460 aa) (final concentration: 2 nM) was added, and the resulting mixture was centrifuged, and fully mixed. 2.5 μL of a peptide Biotin-AHA-SGRGK(Ac)GGK(Ac)GLGK(Ac)GGAK(Ac) RHRKV (final concentration: 200 nM) was then added to initiate the reaction (total reaction volume: 10 μL). The 384-well plate was placed in an incubator at 23° C. to react for 1 hour, and then 5 μL of Eu3+ cryptate-labled anti-GST antibody (purchased from Cisbio) and 5 μL of Streptavidin-XL-665 (purchased from Cisbio) were added to terminate the reaction. After being incubated in the incubator for another 1 hour, the fluorescence values (excited at 320 nm, emitted light at 665 nm and 620 nm being detected, and the ratio of the two being the enzyme binding signal) were read on Envision (purchased from PerkinElmer). The binding strength of each compound to BRD4 (BD2) protein was determined respectively at 7 concentrations, and the data were calculated using GraphPad Prism software to obtain the IC50 value of the compound.

The next series deals with MV4-11 cells. Put plainly: Cell proliferation activity assay in MV4-11. Type of series: cell-based. The note with it: Homo sapiens, inhibiting cell proliferation, 72 hours, Cell-Titer Blue. The protocol: (§1) Human acute lymphoblastic leukemia cell line MV4-11 cells were cultured in PRIM1640 medium plus 10% fetal bovine serum (FBS, purchased from Biological Industries, BI) and 1% penicillin/streptomycin double antibody (P/S, purchased from Life Technology) at 37° C. with 5% CO2. On the day before the compound test, MV4-11 cells were spread in a 96-well plate (purchased from Corning) at a concentration of 8000 cells/195 μL/well. After 24 hours, the compound was serially diluted 4-fold with 100% DMSO starting from 10 mM (9 concentrations in total), and then 2 μL of the compound at each concentration was added to 48 μL of PRIM1640 medium for dilution. 5 μL of the diluted compound at each concentration was added to the wells spread with the cell suspension, and the compound and cells were co-incubated in a cell incubator for 72 hours (3 days). Then the mixture was added with 35 μL of Cell-Titer Blue reagent (purchased from Promega) and incubated for another 4 hours. The fluorescence values (excited at 560 nm, detected at 590 nm) were then read on Flexstation III, and the data were calculated using GraphPad Prism software to give IC50 value of the compound in inhibiting cell proliferation.

A further series concerns Kasumi-1 cells. The experiment in a line: Cell proliferation activity assay in Kasumi-1. It counts as cell-based. The note with it: Homo sapiens, inhibiting cell proliferation, 72 hours, Cell-Titer Blue. On the procedure: as §1, with “myeloblastic” for “lymphoblastic”, “Kasumi-1” for “MV4-11”, “20%” for “10%”, “5000” for “8000”
A short description of series [1]: Animal pharmacokinetic study on compounds. Type of series: in vivo. To be noted: rat, po; male rats, single intragastric administration, 5 mg/kg, plasma. The protocol:
Three healthy adult male rats that obtained from Beijing Vital River Laboratory Animal Technology Co., Ltd were used for the animal pharmacokinetic experiment. A compound was suspended in 2% absolute ethanol, 5% tween 80, 20% polyethylene glycol 400, and 73% (5% hydroxypropylmethyl cellulose in water) (V/V/V/V) at a concentration of 1 mg/mL. The administration volume was 5 mL/kg, and animals were treated with a single intragastric administration at a dose of 5 mg/kg. Animals were fasted overnight prior to the experiment, and the fasting time was from 10 hours before administration to 4 hours after administration. Blood was sampled at 0.25, 0.5, 1, 2, 4, 6, 8 and 24 hours after administration. Animals were lightly anesthetized with isoflurane, and approximately 0.4 mL of whole blood was collected from the orbital venous plexus using a glass blood collection tube, and placed in a heparin anticoagulation tube. The sample was centrifuged at 4200 rpm for 5 minutes at 4° C., and then the plasma was transferred to a centrifuge tube and stored at −80° C. until analyzed. In the plasma sample analysis, test compounds and internal standards (warfarin or propranolol) were extracted from rat plasma by acetonitrile protein precipitation, and the extracts were analyzed by LC/MS/MS. The measured plasma concentration-time data of the individual animals were analyzed using a non-compartmental model of WinNonlin (version no. 5.2.1; Pharsight) software to give pharmacokinetic parameters as shown in Table 3 below: the maximum (peak) plasma drug concentration Cmax; the time to peak Tmax; the half-life T1/2 and the area under the plasma concentration-time curve extrapolated to infinity AUC0-inf.

For `Cn1cc(-c2cc(N=S(C)(C)=O)cnc2Oc2ccc(F)cc2F)c2cc[nH]c2c1=O` [Example 4, 4-{2-(2,4-difluorophenoxy)-5-{[dimethyl(oxo)-λ^6-sulfanylidene]amino}-pyridin-3-yl}-6-methyl-1,6-dihydro-7H-pyrrolo[2,3-c]pyridin-7-one], the IC50 on BRD4 (BD1) was 0.93 nM; against BRD4 (BD2), 0.35 nM; in the series with MV4-11 cells, 8.3 nM; with Kasumi-1 cells, 4.4 nM. For the same molecule, the AUC(0-inf) in series [1] is 2300 ng·h/mL. In series [1], this molecule registered a Cmax of 459 ng/mL. The Tmax in series [1] was determined as 0.83 h. In series [1], this molecule showed a half-life of 2.94 h.
Consider `Cn1cc(-c2cc(N=S(C)(C)=O)ccc2Oc2ccc(F)cc2F)c2cc[nH]c2c1=O` [Example 5, 4-{2-(2,4-difluorophenoxy)-5-{[dimethyl(oxo)-λ^6-sulfanylidene]amino}phenyl}-6-methyl-1,6-dihydro-7H-pyrrolo[2,3-c]pyridin-7-one], for which half-maximal inhibition on BRD4 (BD1) (IC50) was put at 4.8 nM. The IC50 against BRD4 (BD2) is 0.66 nM. The molecule also registered an IC50 in the series with MV4-11 cells of 9.8 nM. For the same molecule, in the series on Kasumi-1 cells, the midpoint of inhibition, the IC50, lay at 15.4 nM. For the same molecule, in series [1], the AUC(0-inf) came out at 2690 ng·h/mL, the peak level (Cmax) was 610 ng/mL, the Tmax stood at 1 h and the half-life was 2.9 h.
For `Cn1cc(-c2cc(N=S3(=O)CCCC3)ccc2Oc2ccc(F)cc2F)c2cc[nH]c2c1=O` [Example 15, 4-{2-(2,4-difluorophenoxy)-5-[(1-oxidotetrahydro-1λ^6-thiophen-1-ylidene)amino]phenyl}-6-methyl-1,6-dihydro-7H-pyrrolo[2,3-c]pyridin-7-one], the IC50 on BRD4 (BD1) came out at 4.5 nM; against BRD4 (BD2) it was 1.2 nM; in the series with MV4-11 cells it was 9.1 nM; with Kasumi-1 cells, 13.7 nM.
As to `CCNC(=O)c1cc2c(-c3cc(N=S(C)(C)=O)cnc3Oc3c(C)cc(F)cc3C)cn(C)c(=O)c2[nH]1` [Example 16, 4-{5-{[dimethyl(oxo)-λ^6-sulfanylidene]amino}-2-(4-fluoro-2,6-dimethylphenoxy)pyridin-3-yl}-N-ethyl-6-methyl-7-oxo-6,7-dihydro-1H-pyrrolo[2,3-c]pyridine-2-carboxamide], the IC50 on BRD4 (BD1) worked out at 86.4 nM; against BRD4 (BD2), 0.4 nM; in the series with MV4-11 cells, 120 nM; in the series on Kasumi-1 cells it was 20.7 nM.
Regarding `Cn1cc(-c2nc(N=S(C)(C)=O)ccc2Oc2ccc(F)cc2F)c2cc[nH]c2c1=O` [Example 18, 4-{3-(2,4-difluorophenoxy)-6-{[dimethyl(oxo)-λ^6-sulfanylidene]amino}-pyridin-2-yl}-6-methyl-1,6-dihydro-7H-pyrrolo[2,3-c]pyridin-7-one], the IC50 with MV4-11 cells worked out at 3.14 nM; in the series on Kasumi-1 cells, 1.56 nM. The half-life in series [1] was 5.25 h.
Consider `Cn1cc(-c2cc(N=S(C)(C)=O)ncc2Oc2ccc(F)cc2F)c2cc[nH]c2c1=O` [Example 19, 4-{5-(2,4-difluorophenoxy)-2-{[dimethyl(oxo)-λ^6-sulfanylidene]amino}-pyridin-4-yl}-6-methyl-1,6-dihydro-7H-pyrrolo[2,3-c]pyridin-7-one], for which the half-inhibitory concentration (IC50) at BRD4 (BD1) came to 7.3 nM; against BRD4 (BD2) it was 0.61 nM; with MV4-11 cells, 54 nM; in the series on Kasumi-1 cells, 7.37 nM.
`Cc1cccc(Cl)c1Oc1ncc(N=S(C)(C)=O)cc1-c1cn(C)c(=O)c2[nH]ccc12` [Example 20, 4-{2-(2-chloro-6-methylphenoxy)-5-{[dimethyl(oxo)-λ^6-sulfanylidene]amino}-pyridin-3-yl}-6-methyl-1,6-dihydro-7H-pyrrolo[2,3-c]pyridin-7-one]: the IC50 came out at 12.9 nM against BRD4 (BD1), 0.27 nM on BRD4 (BD2), 75 nM in the series with MV4-11 cells and 9.25 nM with Kasumi-1 cells.
`CCNC(=O)c1cc2c(-c3cc(N=S(C)(C)=O)cnc3Oc3c(C)cccc3Cl)cn(C)c(=O)c2[nH]1` [Example 21, 4-{2-(2-chloro-6-methylphenoxy)-5-{[dimethyl(oxo)-λ^6-sulfanylidene]amino}-pyridin-3-yl}-N-ethyl-6-methyl-7-oxo-6,7-dihydro-1H-pyrrolo[2,3-c]pyridine-2-carboxamide]: the IC50 on BRD4 (BD1) turned out to be 10.7 nM; at BRD4 (BD2) it was 0.13 nM; in the series on MV4-11 cells, 138 nM; with Kasumi-1 cells it was 18 nM.
